pEC50: −log10 of the molar value. Where “and” joins values, the source holds several entries; their conditions need not be identical. Identical values can stand only once. Like-named read-outs stand apart in the source and are kept apart here.
Test system: AsPC-1 cells
Experiment: Cell proliferation assay, chemodrug + ATR inhibitor (Incucyte confluence, 72 h);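 further: underlying read-out for every value is AsPC-1 confluence after 72 h incubation at 37 °C and 5% CO2, divided by that well's starting confluence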
Conditions: for AsPC-1 viability (ratio) / AsPC-1 viability mean (ratio) / Raw data (confluence at 72 h/confluence at 0 h): Gartisertib experiment; for pEC50 / EC50: Homo sapiens; for Ratio: Response / Response vehicle (mean)
[1] = replicate R2, titrated drug dose 30 nM
[2] = replicate R2, titrated drug dose 100 nM
[3] = replicate R2, titrated drug dose 300 nM
[4] = replicate R2, titrated drug dose 1000 nM
[5] = replicate R2, titrated drug dose 3000 nM
[6] = replicate R2, titrated drug dose 10000 nM
[7] = replicate R3, titrated drug dose 3 nM
[8] = replicate R3, titrated drug dose 10 nM
[9] = replicate R3, titrated drug dose 30 nM
[10] = replicate R3, titrated drug dose 100 nM
[11] = replicate R3, titrated drug dose 300 nM
[12] = replicate R3, titrated drug dose 1000 nM
[13] = replicate R3, titrated drug dose 3000 nM
[14] = replicate R3, titrated drug dose 10000 nM

Experimental: Cells were seeded at 5000 cells/well into 96-well flat bottom plates (Eppendorf) and allowed to attach overnight. […] Cells were incubated for 72 h at 37 °C and 5% CO2. Cell confluence readouts at 72 h were either normalized to their initial confluence using the Incucyte software (AsPC-1) or used without prior normalization (all others). […] Each experiment was performed in triplicates, the data was plotted as mean ± standard deviation (s.d.).

## Nc1nn2cc(F)cnc2c1C(=O)Nc1cncc(F)c1N1CCC(C(=O)N2CCN(C3COC3)CC2)CC1 [Gartisertib]
[1]
  AsPC-1 viability (ratio): 0.94 ratio
  AsPC-1 viability mean (ratio): 0.49 ratio
  Raw data (confluence at 72 h/confluence at 0 h): 3.88
[2]
  AsPC-1 viability (ratio): 0.73 ratio
  AsPC-1 viability mean (ratio): 0.44 ratio
  Raw data (confluence at 72 h/confluence at 0 h): 3.03
[3]
  AsPC-1 viability (ratio): 0.38 ratio
  AsPC-1 viability mean (ratio): 0.4 ratio
  Raw data (confluence at 72 h/confluence at 0 h): 1.58
[4]
  AsPC-1 viability (ratio): 0.31 ratio
  AsPC-1 viability mean (ratio): 0.53 ratio
  Raw data (confluence at 72 h/confluence at 0 h): 1.27
[5]
  AsPC-1 viability (ratio): 0.28 ratio
  AsPC-1 viability mean (ratio): 0.92 ratio
  Raw data (confluence at 72 h/confluence at 0 h): 1.17
[6]
  AsPC-1 viability (ratio): 0.29 ratio
  AsPC-1 viability mean (ratio): 0.47 ratio
  Raw data (confluence at 72 h/confluence at 0 h): 1.19
[7]
  AsPC-1 viability (ratio): 1.02 ratio
  AsPC-1 viability mean (ratio): 0.58 ratio
  Raw data (confluence at 72 h/confluence at 0 h): 4.1
[8]
  AsPC-1 viability (ratio): 0.97 ratio
  AsPC-1 viability mean (ratio): 0.53 ratio
  Raw data (confluence at 72 h/confluence at 0 h): 3.9
[9]
  AsPC-1 viability (ratio): 0.94 ratio
  AsPC-1 viability mean (ratio): 0.35 ratio
  Raw data (confluence at 72 h/confluence at 0 h): 3.77
[10]
  AsPC-1 viability (ratio): 0.8 ratio
  AsPC-1 viability mean (ratio): 0.35 ratio
  Raw data (confluence at 72 h/confluence at 0 h): 3.2
[11]
  AsPC-1 viability (ratio): 0.41 ratio
  AsPC-1 viability mean (ratio): 0.34 ratio
  Raw data (confluence at 72 h/confluence at 0 h): 1.63
[12]
  AsPC-1 viability (ratio): 0.33 ratio
  AsPC-1 viability mean (ratio): 0.47 ratio
  Raw data (confluence at 72 h/confluence at 0 h): 1.34
[13]
  AsPC-1 viability (ratio): 0.29 ratio
  AsPC-1 viability mean (ratio): 0.35 ratio
  Raw data (confluence at 72 h/confluence at 0 h): 1.18
[14]
  AsPC-1 viability (ratio): 0.25 ratio
  AsPC-1 viability mean (ratio): 0.34 ratio
  Raw data (confluence at 72 h/confluence at 0 h): 1
ASPC1, 72 h, AsPC1, Experiment ATRi (ATR inhibitor alone), single replicates R1-R3
  pEC50: 6.97
ASPC1, 72 h, read-out: EC50 (cell growth), ATR inhibitor as single agent
  pEC50: 6.89
ASPC1, 72 h, read-out: EC50 mean [nM], AsPC1, Experiment ATRi (ATR inhibitor alone), mean of replicates
  EC50: 128 nM
ASPC1, 72 h, read-out: pEC50, AsPC1 (converted), Experiment ATRi (ATR inhibitor alone), single replicates R1-R3
  EC50: 107 nM
ASPC1, read-out: EC50 mean [nM], AsPC1, Experiment ATRi (ATR inhibitor alone), mean of replicates
  EC50: 128 nM
GEM 0 nM, ATRi 3 nM
  Ratio: 0.90 and 0.92 and 1.01 and 0.83 and 1.02 and 0.89
GEM 0 nM, ATRi 10 nM
  Ratio: 1.01 and 1.02 and 1.00 and 0.91 and 0.97 and 0.98
GEM 0 nM, ATRi 30 nM
  Ratio: 0.95 and 0.94 and 0.89
GEM 0 nM, ATRi 100 nM
  Ratio: 0.63 and 0.73 and 0.80
GEM 0 nM, ATRi 300 nM
  Ratio: 0.44 and 0.38 and 0.41
GEM 0 nM, ATRi 1000 nM
  Ratio: 0.37 and 0.31 and 0.33
GEM 0 nM, ATRi 3000 nM
  Ratio: 0.33 and 0.28 and 0.29
GEM 0 nM, ATRi 10000 nM
  Ratio: 0.27 and 0.29 and 0.25
GEM 1 nM + ATRi 3 nM
  Ratio: 0.98 and 0.92 and 0.96
GEM 1 nM + ATRi 10 nM
  Ratio: 1.01 and 0.95 and 0.97
GEM 1 nM + ATRi 30 nM
  Ratio: 0.89 and 0.91 and 0.87
GEM 3 nM + ATRi 3 nM
  Ratio: 0.98 and 0.93
GEM 3 nM + ATRi 10 nM
  Ratio: 0.94 and 0.89 and 0.91
GEM 3 nM + ATRi 30 nM
  Ratio: 0.95 and 0.82 and 0.85
GEM 10 nM + ATRi 3 nM
  Ratio: 0.87 and 0.86
GEM 10 nM + ATRi 10 nM
  Ratio: 0.79 and 0.67 and 0.68
GEM 10 nM + ATRi 30 nM
  Ratio: 0.59 and 0.46 and 0.49
GEM 30 nM + ATRi 3 nM
  Ratio: 0.66 and 0.55 and 0.53
GEM 30 nM + ATRi 10 nM
  Ratio: 0.51 and 0.39 and 0.41
GEM 30 nM + ATRi 30 nM
  Ratio: 0.55 and 0.40 and 0.39
GEM 100 nM + ATRi 3 nM
  Ratio: 0.52 and 0.40 and 0.41
GEM 100 nM + ATRi 10 nM
  Ratio: 0.49 and 0.37 and 0.39
GEM 100 nM + ATRi 30 nM
  Ratio: 0.48 and 0.38 and 0.37
GEM 300 nM + ATRi 3 nM
  Ratio: 0.49 and 0.39 and 0.38
GEM 300 nM + ATRi 10 nM
  Ratio: 0.47 and 0.37
GEM 300 nM + ATRi 30 nM
  Ratio: 0.46 and 0.35 and 0.36
GEM 1000 nM + ATRi 3 nM
  Ratio: 0.49 and 0.39
GEM 1000 nM + ATRi 10 nM
  Ratio: 0.44 and 0.38 and 0.36
GEM 1000 nM + ATRi 30 nM
  Ratio: 0.43 and 0.35
GEM 3000 nM + ATRi 3 nM
  Ratio: 0.43 and 0.38 and 0.37
GEM 3000 nM + ATRi 10 nM
  Ratio: 0.43 and 0.35 and 0.34
GEM 3000 nM + ATRi 30 nM
  Ratio: 0.41 and 0.34

From article PMC11876601 (Molecular Systems Biology, 2025)
